Experimental data: paper PMC9127186, “Molecular Basis Underlying Hepatobiliary and Renal Excretion of Phenolic Acids of Salvia miltiorrhiza Roots (Danshen)” (Frontiers in Pharmacology, 2022)

What was measured:
rat Oatp1b2 = molecular target: T1, rat Oatp1b2 (Rattus norvegicus, UniProt Q9QZX8); test: Cellular transport assay, HEK-293 cells expressing rat Oatp1b2; conditions: for TransportTC/TransportMC ratio (net transport ratio): 10 min
T1 sequence (Q9QZX8 1-687): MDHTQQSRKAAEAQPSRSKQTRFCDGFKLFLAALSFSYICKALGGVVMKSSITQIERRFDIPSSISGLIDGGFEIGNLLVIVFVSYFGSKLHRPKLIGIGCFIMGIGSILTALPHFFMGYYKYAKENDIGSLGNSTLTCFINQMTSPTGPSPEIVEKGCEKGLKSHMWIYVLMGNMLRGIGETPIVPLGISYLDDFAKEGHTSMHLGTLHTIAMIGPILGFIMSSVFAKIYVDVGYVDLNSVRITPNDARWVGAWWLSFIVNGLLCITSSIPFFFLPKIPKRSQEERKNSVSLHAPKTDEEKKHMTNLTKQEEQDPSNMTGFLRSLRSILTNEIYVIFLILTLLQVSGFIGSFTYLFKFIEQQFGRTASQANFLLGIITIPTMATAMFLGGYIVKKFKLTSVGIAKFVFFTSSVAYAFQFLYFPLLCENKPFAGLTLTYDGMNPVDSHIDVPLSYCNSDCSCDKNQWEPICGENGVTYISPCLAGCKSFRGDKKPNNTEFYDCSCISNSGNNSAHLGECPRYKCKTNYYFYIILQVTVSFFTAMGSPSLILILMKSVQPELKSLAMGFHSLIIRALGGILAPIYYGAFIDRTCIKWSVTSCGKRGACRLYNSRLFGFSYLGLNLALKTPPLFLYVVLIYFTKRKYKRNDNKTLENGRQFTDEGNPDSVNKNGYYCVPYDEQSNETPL
Protocol: (§1) Briefly, HEK-293 cells were grown, at 37°C and 5% CO2, in Dulbecco’s modified Eagle’s medium, which was fortified with 10% fetal bovine serum, 1% minimal essential medium nonessential amino acids, and 1% antibiotic-antimycotic solution. A day before transfection, cells were seeded onto 24-well poly-D-lysine-coated plates at a density of 2 × 10^5 cells per well. After incubation at 37°C and 5% CO2 for 24 h, the expression plasmid and the empty vector were introduced separately into the HEK293 cells with Lipofectamine 2000 transfection reagent (Invitrogen, Carlsbad, CA, United States), according to the manufacturer’s protocol to yield transporter-expressing cells and mock cells, respectively.
(§2) Transport studies were performed 48 h after the transfection. […] Differential uptake between the transfected cells and mock cells was defined as net transport ratio (TransportTC/TransportMC ratio), where TransportTC and TransportMC are the transport rates of a test Danshen compound into transfected and mock cells, respectively. […] The determination was performed under linear uptake conditions by incubation for 5 min. Table 1 summarizes the final concentrations of the test Danshen compounds for different transporters. All the incubation samples were analyzed by liquid chromatography/mass spectrometry.
(§3) GraFit software (version 5.0; Erithacus Software Ltd, Surrey, United Kingdom) was used to determine the K m and V max values by nonlinear regression analysis of initial transport rates as a function of substrate concentration.

rat Oat3 = molecular target: T2, rat Oat3 (Rattus norvegicus, UniProt Q9R1U7); test: Cellular transport assay, HEK-293 cells expressing rat Oat3; conditions: for TransportTC/TransportMC ratio (net transport ratio): 10 min; for K m: rat renal basolateral uptake Oat3, 5 min incubation, concentrations in Table 1
T2 sequence (Q9R1U7 1-536): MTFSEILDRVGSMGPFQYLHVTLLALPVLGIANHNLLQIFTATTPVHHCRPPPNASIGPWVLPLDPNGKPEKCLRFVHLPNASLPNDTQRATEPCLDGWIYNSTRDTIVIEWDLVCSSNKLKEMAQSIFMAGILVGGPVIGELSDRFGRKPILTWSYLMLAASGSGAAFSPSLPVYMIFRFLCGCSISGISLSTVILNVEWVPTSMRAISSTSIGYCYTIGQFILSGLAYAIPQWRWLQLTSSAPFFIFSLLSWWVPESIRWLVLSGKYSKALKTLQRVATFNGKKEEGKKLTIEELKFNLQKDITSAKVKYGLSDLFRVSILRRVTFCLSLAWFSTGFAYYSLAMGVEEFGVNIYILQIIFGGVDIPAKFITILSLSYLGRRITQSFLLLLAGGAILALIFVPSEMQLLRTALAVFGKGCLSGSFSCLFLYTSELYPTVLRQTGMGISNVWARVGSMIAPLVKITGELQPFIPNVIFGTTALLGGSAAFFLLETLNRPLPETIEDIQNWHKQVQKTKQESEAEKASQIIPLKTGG
Protocol: as §1, §2, §3

human OAT2 = molecular target: T3, human OAT2 (Homo sapiens, UniProt Q9Y694); test: Cellular transport assay, HEK-293 cells expressing human OAT2; conditions: for TransportTC/TransportMC ratio (net transport ratio): 10 min; for K m: human hepatic sinusoidal uptake OAT2 (also renal basolateral), 5 min incubation, concentrations in Table 1
T3 sequence (Q9Y694 1-546 isoform Q9Y694-2): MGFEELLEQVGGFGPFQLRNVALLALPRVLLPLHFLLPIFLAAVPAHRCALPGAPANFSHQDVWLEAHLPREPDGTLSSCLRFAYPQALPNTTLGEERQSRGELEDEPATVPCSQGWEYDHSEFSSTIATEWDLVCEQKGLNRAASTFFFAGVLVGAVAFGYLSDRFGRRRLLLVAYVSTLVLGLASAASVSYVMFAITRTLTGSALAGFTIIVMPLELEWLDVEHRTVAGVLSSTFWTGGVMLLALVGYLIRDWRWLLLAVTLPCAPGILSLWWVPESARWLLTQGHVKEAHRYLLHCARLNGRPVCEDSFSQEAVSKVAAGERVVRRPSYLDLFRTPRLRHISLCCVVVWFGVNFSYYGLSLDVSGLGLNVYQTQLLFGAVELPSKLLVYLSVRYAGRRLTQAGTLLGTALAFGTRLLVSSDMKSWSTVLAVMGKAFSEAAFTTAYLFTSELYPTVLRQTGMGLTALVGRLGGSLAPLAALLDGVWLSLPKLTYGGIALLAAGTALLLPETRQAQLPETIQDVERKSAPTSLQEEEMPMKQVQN
Protocol: as §1, §2, §3

human OAT4 = molecular target: T4, human OAT4 (Homo sapiens, UniProt Q9NSA0); test: Cellular transport assay, HEK-293 cells expressing human OAT4; conditions: for TransportTC/TransportMC ratio (net transport ratio): 10 min; for K m: human renal apical uptake OAT4, 5 min incubation, concentrations in Table 1
T4 sequence (Q9NSA0 1-550): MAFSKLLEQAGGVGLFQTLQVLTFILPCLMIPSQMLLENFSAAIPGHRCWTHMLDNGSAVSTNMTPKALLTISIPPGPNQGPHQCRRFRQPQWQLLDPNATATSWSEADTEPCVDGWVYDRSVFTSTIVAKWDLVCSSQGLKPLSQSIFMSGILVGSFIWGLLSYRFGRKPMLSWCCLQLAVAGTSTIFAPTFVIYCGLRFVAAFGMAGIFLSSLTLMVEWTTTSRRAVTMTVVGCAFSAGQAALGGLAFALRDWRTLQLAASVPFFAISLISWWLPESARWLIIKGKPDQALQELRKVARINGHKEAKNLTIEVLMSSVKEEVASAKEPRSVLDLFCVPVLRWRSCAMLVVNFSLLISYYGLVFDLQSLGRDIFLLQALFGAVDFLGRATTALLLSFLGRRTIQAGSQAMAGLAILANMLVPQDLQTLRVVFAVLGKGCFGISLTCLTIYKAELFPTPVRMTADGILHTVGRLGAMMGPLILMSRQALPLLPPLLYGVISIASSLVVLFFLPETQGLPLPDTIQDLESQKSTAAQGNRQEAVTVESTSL
Protocol: as §1, §2, §3

[1] = Danshen phenolic acid at 100 μM final concentration, rat Oatp1b2-transfected vs mock cells
[2] = rat hepatic sinusoidal uptake Oatp1b2, 5 min incubation, concentrations in Table 1
[3] = Danshen phenolic acid at 100 μM final concentration, rat Oat3-transfected vs mock cells
[4] = Danshen phenolic acid at 100 μM final concentration, human OAT2-transfected vs mock cells
[5] = Danshen phenolic acid at 100 μM final concentration, human OAT4-transfected vs mock cells

Compound	substrate of rat Oatp1b2 (rat Oatp1b2)	TransportTC/TransportMC ratio (net transport ratio) (rat Oatp1b2; [1])	K m (rat Oatp1b2; [2])	TransportTC/TransportMC ratio (net transport ratio) (rat Oat3; [3])	TransportTC/TransportMC ratio (net transport ratio) (human OAT2; [4])	TransportTC/TransportMC ratio (net transport ratio) (human OAT4; [5])	K m (rat Oat3)	substrate of human OAT2 (human OAT2)	K m (human OAT2)	substrate of rat Oat3 (rat Oat3)	other results
O=C(/C=C/c1ccc(O)c2c1[C@H](C(=O)O)[C@@H](c1ccc(O)c(O)c1)O2)O[C@H](Cc1ccc(O)c(O)c1)C(=O)O [Lithospermic acid, lithospermic acid]	substrates	11.6 ± 0.7	91.3 ± 10.6 µM	0.94 ± 0.23	1.51 ± 0.27	2.91 ± 0.17					microsomal CLint (rat Oatp1b2; rat): 0.41 µL/min/mg
O=C(O)c1ccc(O)c(O)c1 [Protocatechuic acid, protocatechuic acid]	neither protocatechuic acid nor tanshinol was a substrate	1.32 ± 0.45		16.1 ± 2.8	417 ± 23	1.56 ± 0.46	117 ± 27 µM	substrates	185 ± 24 µM		microsomal CLint (rat Oat3; rat): 0.57 µL/min/mg; microsomal CLint (human OAT2; human): 20.7 µL/min/mg
O=C(/C=C/c1ccc(O)c(O)c1)O[C@H](Cc1ccc(O)c(O)c1)C(=O)O [Rosmarinic acid, rosmarinic acid]	substrates		2049 ± 418 µM				24.0 ± 4.2 µM	substrates	48.6 ± 4.2 µM	substrates	TransportTC/TransportMC ratio (net transport ratio) (rat Oatp1b2; rat, 100 μM): 17.0 ± 2.8; microsomal CLint (rat Oatp1b2; rat, other cell line): 0.08 µL/min/mg; TransportTC/TransportMC ratio (net transport ratio) (rat Oat3; rat, 100 μM): 4.45 ± 1.12; microsomal CLint (rat Oat3; rat, other cell line): 0.15 µL/min/mg; TransportTC/TransportMC ratio (net transport ratio) (human OAT2; human, 100 μM): 716 ± 86; microsomal CLint (human OAT2; human, other cell line): 19.1 µL/min/mg; substrate of human OAT4 (human OAT4): relatively weak substrates; K m (human OAT4): 325 ± 53 µM; TransportTC/TransportMC ratio (net transport ratio) (human OAT4; human, 100 μM): 7.27 ± 0.77; microsomal CLint (human OAT4; human, other cell line): 0.15 µL/min/mg
O=C(/C=C/c1ccc(O)c(O)c1/C=C/c1ccc(O)c(O)c1)O[C@H](Cc1ccc(O)c(O)c1)C(=O)O [Salvianolic acid A, salvianolic acid A]	substrate		50.5 ± 12.8 µM					not a substrate		not substrates	TransportTC/TransportMC ratio (net transport ratio) (rat Oatp1b2; rat, 100 μM): 7.52 ± 1.31; microsomal CLint (rat Oatp1b2; rat, other cell line): 0.38 µL/min/mg; TransportTC/TransportMC ratio (net transport ratio) (rat Oat3; rat, 100 μM): 1.09 ± 0.35; TransportTC/TransportMC ratio (net transport ratio) (human OAT2; human, 100 μM): 2.25 ± 0.47; TransportTC/TransportMC ratio (net transport ratio) (human OAT4; human, 100 μM): 1.56 ± 0.23
O=C(O)Cc1c(/C=C/C(=O)O[C@H](Cc2ccc(O)c(O)c2)C(=O)O)ccc(O)c1O [Salvianolic acid D, salvianolic acid D]	substrates	16.0 ± 0.8	464 ± 62 µM	1.41 ± 0.36	314 ± 44	2.87 ± 0.09		substrates	111 ± 13 µM	not of rat Oat3	microsomal CLint (rat Oatp1b2; rat): 1.23 µL/min/mg; microsomal CLint (human OAT2; human): 24.3 µL/min/mg
O=C(O)C(O)Cc1ccc(O)c(O)c1 (centres unmarked) [Tanshinol, tanshinol]							3,760 ± 907 μM		1,228 ± 160 μM		microsomal CLint (rat Oat3; rat, other cell line): 0.07 µL/min/mg; K m (human OAT4): 3,442 ± 940 μM
salvianolic acid B	substrates	30.0 ± 0.6	20.5 ± 1.9 µM	1.12 ± 0.41	1.04 ± 0.09	0.95 ± 0.23					CLint (rat Oatp1b2; rat hepatic sinusoidal uptake Oatp1b2): 0.87 μL/min/mg protein; V max (rat Oatp1b2; [2]): 17.7 ± 0.5 pmol/min/mg protein
